The subject of this assay is 299254-011-R-J1-PDC complex spheroid viability. Briefly: Anticancer human tumor 299254-011-R-J1-PDC patient-derived melanoma cell line growth inhibition [POLQ]. The settings on record: for viability, T/C: stronger effect = lower value. The method, then: Multicellular complex tumor spheroid response to Polymerase (POL) inhibitors (novobiocin, ART-558, RP6685) in combination with a variety of drugs and investigational agents in selected tumor cell lines
The POL inhibitors (novobiocin, ART-558, and RP6685) were evaluated both individually and in combination with standard of care and investigational anticancer small molecules within a complex spheroid model of solid tumors. . Complex spheroids include a stromal component modeled by human endothelial cells (HUVEC) and fibroblasts modeled by human mesenchymal stem cells (MSCs). The concentration ranges selected for each drug and investigational agent were based upon clinically achievable concentrations if the clinical Cmax of the agent was known.
Compounds. The drugs and investigational agents: novobiocin (NSC847541), ART-558 (NSC835418), RP-6685 (NSC848927), peposertib (NSC802822), ceralasertib (NSC780249), elimusertib (NSC800525), camonsertib (NSC841442), AZD-1390 (NSC803789), olaparib (NSC753686), talazoparib (NSC767125), rucaparib (NSC756644), sotorasib (NSC818433), MRTX-1133 (NSC836407), SN-38 (NSC673596), topotecan (NSC609699), epotoside (NSC141540), doxorubicin (NSC123127), gemcitabine (NSC613327), 5-fluorouracil (NSC19893), paclitaxel (NSC125973), vemurafenib (NSC761431), MSA-2 (NSC828583), SN-011 (NSC837082), adavosertib (NSC754352), prexasertib (NSC758257), carboplatin (NSC241240) and oxaliplatin (NSC266046), were obtained from the National Cancer Institute (NCI) Developmental Therapeutics Program Chemical Repository (21). The FDA-approved anticancer drug set is available from the Developmental Therapeutics Program at https://dtp.cancer.gov/organization/dscb/obtaining/. […] The stock solutions were prepared in dimethyl sulfoxide (DMSO, Sigma-Aldrich, St. Louis, MO, cat. D2650), except for the platinum compounds which were prepared in saline (Quality Biological, Gaithersburg, MD, cat. 114-055-101), at 800-fold the tested concentration and stored at -70 degrees C prior to their use. All drugs and investigational agents were tested over a range starting from a high concentration at or near the clinical Cmax and decreasing in half-log increments. If the clinical Cmax for an agent had not been determined, the highest concentration tested was 10 microM, except for SN-38, which was tested at a high concentration of 1 microM.
Cell Culture. All cells were maintained in an incubator at 37 degrees C and 5% CO2 with 95% humidity. The PDC lines were cultured according to standard operating procedures established by the NCI PDMR (https://pdmr.cancer.gov). Table 3 of the manuscript, lists the cell lines along with the number of the three cell types plated to form the mct-spheroids and media for tumor cell growth. After thawing, all PDC lines, except 997537-175-T-J1-PDC and 415267-285-R-J2-PDC, were cultured in Matrigel-coated flasks prepared with a working solution of 1X Ham's F-12 nutrient mix, without supplementation (Thermo Fisher Scientific, cat. 11765054), 100 U/mL penicillin-streptomycin (Thermo Fisher Scientific, cat. 15140122), and 2.5% Matrigel (Corning Inc., Corning, NY, cat. 354248) for the first three passages. The two PDC lines 997537-175-T-J1-PDC and 415267-285-R-J2-PDC were cultured on uncoated flasks. The 857933-349-R-J2-PDC line was cultured in 6C/Colon 1B media containing advanced DMEM/F-12 (Thermo Fisher Scientific, cat. 12634028), 10 mM HEPES (Thermo Fisher Scientific, cat. 15630080), 1X GlutaMAX supplement (Thermo Fisher Scientific, cat. 35050061), 0.1 mg/mL primocin (InvivoGen, San Diego, CA, cat. ant-pm-2), 10% defined fetal bovine serum, heat inactivated (HyClone Laboratories Inc., Logan, UT, cat. SH30070.03HI), 50% L-WRN conditioned media (ATCC, cat. CRL-3276), 1.25 mM N-Acetyl-L-cysteine (Sigma-Aldrich, cat. A9165), 10 mM nicotinamide (Sigma-Aldrich, cat. N0636), 1X B-27 supplement (Thermo Fisher Scientific, cat. 17504044), 1X N-2 supplement (Thermo Fisher Scientific, cat. […]

The mark [1] stands for this setting: curve of first compound, second compound 0.0316 µM.
Setting [2] is: curve of first compound, second compound 0.1 µM.
Setting [3] is: curve of first compound, second compound 0.316 µM.
Where [4] appears, read: curve of first compound, second compound 1 µM.
The mark [5] stands for this setting: curve of first compound, second compound 3.16 µM.
Where [6] appears, read: curve of first compound, second compound 10 µM.
The mark [7] stands for this setting: second compound 0.0316 µM, first compound 0.00316 µM.
[8] abbreviates: second compound 0.0316 µM, first compound 0.01 µM.
[9] abbreviates: second compound 0.0316 µM, first compound 0.0316 µM.
Setting [10] is: second compound 0.0316 µM, first compound 0.1 µM.
The mark [11] stands for this setting: second compound 0.1 µM, first compound 0.00316 µM.
Where [12] appears, read: second compound 0.1 µM, first compound 0.01 µM.
Where [13] appears, read: second compound 0.1 µM, first compound 0.0316 µM.
Setting [14] is: second compound 0.1 µM, first compound 0.1 µM.
The mark [15] stands for this setting: second compound 0.316 µM, first compound 0.00316 µM.
Where [16] appears, read: second compound 0.316 µM, first compound 0.01 µM.
Where [17] appears, read: second compound 0.316 µM, first compound 0.0316 µM.
The mark [18] stands for this setting: second compound 0.316 µM, first compound 0.1 µM.
Setting [19] is: second compound 1 µM, first compound 0.00316 µM.
The mark [20] stands for this setting: second compound 1 µM, first compound 0.01 µM.
[21] abbreviates: second compound 1 µM, first compound 0.0316 µM.
The mark [22] stands for this setting: second compound 1 µM, first compound 0.1 µM.
The mark [23] stands for this setting: second compound 3.16 µM, first compound 0.00316 µM.
Setting [24] is: second compound 3.16 µM, first compound 0.01 µM.
[25] abbreviates: second compound 3.16 µM, first compound 0.0316 µM.
Where [26] appears, read: second compound 3.16 µM, first compound 0.1 µM.
The mark [27] stands for this setting: second compound 10 µM, first compound 0.00316 µM.
[28] abbreviates: second compound 10 µM, first compound 0.01 µM.
[29] abbreviates: second compound 10 µM, first compound 0.0316 µM.
The mark [30] stands for this setting: second compound 10 µM, first compound 0.1 µM.
[31] abbreviates: compound alone, run of 12/05/2023.

pIC50: −log10 of the molar value. Values joined by “and” are separate entries in the source; they are usually repeats but may differ in a detail not shown here. Identical values can stand only once.
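Note: spheroids exposed to drugs for one week before measurement.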
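Throughout, for viability, T/C: percent viability relative to DMSO vehicle control taken as 100%.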

With `CC[C@@]1(O)C(=O)OCc2c1cc1n(c2=O)Cc2cc3c(CN(C)C)c(O)ccc3nc2-1` + Nc1ccc(C#CCN(C(=O)Cc2ncc(C(F)(F)F)cc2C(F)(F)F)c2ccc(F)cc2)nn1, the negative logarithm of the IC50 (pIC50) under setting [1] is under 7.00; the negative logarithm of the IC50 (pIC50) under setting [2] was under 7.00; the negative logarithm of the IC50 (pIC50) under setting [3] was under 7.00; the pIC50 under setting [4] is under 7.00; the negative-log IC50 (pIC50) under setting [5] is under 7.00; the pIC50 under setting [6] is under 7.00. Also, the viability, T/C is 133% (second compound 0.0316 µM, first compound 0.000316 µM); 112% (second compound 0.0316 µM, first compound 0.001 µM); 108% under setting [7]; 101% under setting [8]; 88.5% under setting [9]; 77.8% under setting [10]. Besides, the viability, T/C is 111% (second compound 0.1 µM, first compound 0.000316 µM); 107% (second compound 0.1 µM, first compound 0.001 µM); 105% under setting [11]; 94.7% under setting [12]; 94.8% under setting [13]; 84.6% under setting [14]. For the same compound, the viability, T/C by setting is: (second compound 0.316 µM, first compound 0.000316 µM) 106%; (second compound 0.316 µM, first compound 0.001 µM) 102%; under setting [15], 86.7%; under setting [16], 103%; under setting [17], 112%; under setting [18], 92.9%. Further, the viability, T/C (second compound 1 µM, first compound 0.000316 µM) was 99.6%; the viability, T/C (second compound 1 µM, first compound 0.001 µM) is 106%; the viability, T/C under setting [19] was 107%; the viability, T/C under setting [20] was 111%; the viability, T/C under setting [21] is 109%; the viability, T/C under setting [22] is 96%. Moreover, the viability, T/C by setting is: (second compound 3.16 µM, first compound 0.000316 µM) 94.2%; (second compound 3.16 µM, first compound 0.001 µM) 112%; under setting [23], 95%; under setting [24], 96.9%; under setting [25], 92.2%; under setting [26], 96.6%. Further, the viability, T/C reads like this: (second compound 10 µM, first compound 0.000316 µM) 102%; (second compound 10 µM, first compound 0.001 µM) 103%; under setting [27], 95%; under setting [28], 94.2%; under setting [29], 99.6%; under setting [30], 68.5%.

Take `COc1cccc(OCCCN)c1-c1cc(Nc2cnc(C#N)cn2)n[nH]1` + Nc1ccc(C#CCN(C(=O)Cc2ncc(C(F)(F)F)cc2C(F)(F)F)c2ccc(F)cc2)nn1: the pIC50 was 6.83 under setting [1]; 7.01 under setting [2]; 7.01 under setting [3]; 7.10 under setting [4]; 7.15 under setting [5]; 7.53 under setting [6]. Further, the viability, T/C runs as follows: under setting [7], 96.7%; under setting [8], 129%; under setting [9], 78.6%; under setting [10], 61.2%; (second compound 0.0316 µM, first compound 0.316 µM) 40.2%; (second compound 0.0316 µM, first compound 1 µM) 42.6%. Besides, the viability, T/C is 106% under setting [11]; 107% under setting [12]; 84.9% under setting [13]; 49.2% under setting [14]; 51.6% (second compound 0.1 µM, first compound 0.316 µM); 42.3% (second compound 0.1 µM, first compound 1 µM). Further, the viability, T/C is 111% under setting [15]; 97.5% under setting [16]; 67% under setting [17]; 51.8% under setting [18]; 40% (second compound 0.316 µM, first compound 0.316 µM); 35.5% (second compound 0.316 µM, first compound 1 µM). Further, the viability, T/C runs as follows: under setting [19], 98.3%; under setting [20], 111%; under setting [21], 72.2%; under setting [22], 51.6%; (second compound 1 µM, first compound 0.316 µM) 41.8%; (second compound 1 µM, first compound 1 µM) 37.2%. For the same compound, the viability, T/C under setting [23] is 115%; the viability, T/C under setting [24] is 79.6%; the viability, T/C under setting [25] was 63.9%; the viability, T/C under setting [26] was 41.7%; the viability, T/C (second compound 3.16 µM, first compound 0.316 µM) was 37%; the viability, T/C (second compound 3.16 µM, first compound 1 µM) is 46.6%. In addition, the viability, T/C under setting [27] was 121%; the viability, T/C under setting [28] was 75.1%; the viability, T/C under setting [29] was 48.9%; the viability, T/C under setting [30] is 38%; the viability, T/C (second compound 10 µM, first compound 0.316 µM) is 32.3%; the viability, T/C (second compound 10 µM, first compound 1 µM) was 35.7%.

Take `COc1cc2cc(C(=O)CCC(=O)O)sc2cc1OC`: the viability, T/C reads like this: (compound 0.0316 µM) 107% and 89.4% and 110%; (compound 0.1 µM) 94.7% and 99.2% and 93.1%; (compound 0.316 µM) 106% and 87.4% and 93.6%; (compound 1 µM) 103% and 100% and 97.2%; (compound 3.16 µM) 113% and 103% and 108%; (compound 10 µM) 103% and 104% and 101%. In addition, the negative logarithm of the IC50 (pIC50) (curve of compound) was under 5.00.

For `Nc1ccc(C#CCN(C(=O)Cc2ncc(C(F)(F)F)cc2C(F)(F)F)c2ccc(F)cc2)nn1`, the viability, T/C is 102% [middle of 13 runs] (compound 0.0316 µM); 104% [middle of 13 runs] (compound 0.1 µM); 102% [middle of 13 runs] (compound 0.316 µM); 96.5% [middle of 13 runs] (compound 1 µM); 96.5% [middle of 13 runs] (compound 3.16 µM); 95.6% [middle of 13 runs] (compound 10 µM). The negative-log IC50 (pIC50) under setting [31] is under 5.00.

In the case of `CCc1cc2c(N3CCc4c(cc(Cn5ccnc5)cc4-c4cn(C)nc4C(F)(F)F)C3=O)cc(C)nc2c(OC)n1`, the viability, T/C runs as follows: (compound 0.0316 µM) 131% and 104% and 92.7%; (compound 0.1 µM) 90.2% and 96.5% and 106%; (compound 0.316 µM) 118% and 92.2% and 99.7%; (compound 1 µM) 99.2% and 94.1% and 99.4%; (compound 3.16 µM) 103% and 86.5% and 90.4%; (compound 10 µM) 59.6% and 62.7% and 67.7%. In addition, under “curve of compound”, the pIC50 was under 5.00.

In the case of `Cc1cccc(N(C)C(=O)C2C(O)CCN2c2nc(C)cc(C(F)(F)F)c2C#N)c1` (configuration not stated), the viability, T/C (compound 0.0316 µM) was 102% [middle of 13 runs]; the viability, T/C (compound 0.1 µM) was 103% [middle of 13 runs]; the viability, T/C (compound 0.316 µM) was 102% [middle of 13 runs]; the viability, T/C (compound 1 µM) is 103% [middle of 13 runs]; the viability, T/C (compound 3.16 µM) is 97.3% [middle of 13 runs]. Besides, the pIC50 is, setting by setting: (compound alone, run of 11/27/2023) under 5.00; under setting [31], under 5.00.

(Values after PubChem BioAssay AID1963849 (Molecular Pharmacology Branch, DTP, NCI, 2024).)
